# Results taken from publication PMC10006169, “A phase I trial of LXS196, a protein kinase C (PKC) inhibitor, for metastatic uveal melanoma” (British Journal of Cancer, 2023).
# System: patients with MUM
# Experiment: Adverse events regardless of study drug relationship
# Assay type: in vivo, human
# Procedure: Routine safety assessments, including laboratory assessments, physical examinations, vital signs and electrocardiograms (ECGs), were conducted at regular intervals throughout the study and more frequently as needed following patient assessment by the treating physician. Adverse events (AEs) were assessed continuously according to the National Cancer Institute Common Terminology Criteria for Adverse Events (NCI-CTCAE) v4.03.
structure (smiles),measurement,setting,value
CC1(N)CCN(c2cccnc2NC(=O)c2nc(-c3ncccc3C(F)(F)F)cnc2N)CC1 [LXS196],"ALT increased, all grades",500 mg QD,3 (27.3) n (%)
same,"ALT increased, grade ≥3",500 mg QD,1 (9.1) n (%)
same,"AST increased, all grades",500 mg QD,4 (36.4) n (%)
same,"AST increased, grade ≥3",500 mg QD,1 (9.1) n (%)
same,"Abdominal pain upper, all grades",500 mg QD,2 (18.2) n (%)
same,"Abdominal pain upper, grade ≥3",500 mg QD,0 n (%)
same,"Asthenia, all grades",500 mg QD,4 (36.4) n (%)
same,"Asthenia, grade ≥3",500 mg QD,0 n (%)
same,"Blood creatinine increased, all grades",500 mg QD,0 n (%)
same,"Blood creatinine increased, grade ≥3",500 mg QD,0 n (%)
same,"Constipation, all grades",500 mg QD,2 (18.2) n (%)
same,"Constipation, grade ≥3",500 mg QD,0 n (%)
same,"Decreased appetite, all grades",500 mg QD,4 (36.4) n (%)
same,"Decreased appetite, grade ≥3",500 mg QD,0 n (%)
same,"Dermatitis acneiform, all grades",500 mg QD,1 (9.1) n (%)
same,"Dermatitis acneiform, grade ≥3",500 mg QD,0 n (%)
same,"Diarrhoea, all grades",500 mg QD,5 (45.5) n (%)
same,"Diarrhoea, grade ≥3",500 mg QD,0 n (%)
same,"Dry skin, all grades",500 mg QD,1 (9.1) n (%)
same,"Dry skin, grade ≥3",500 mg QD,0 n (%)
same,"Fatigue, all grades",500 mg QD,1 (9.1) n (%)
same,"Fatigue, grade ≥3",500 mg QD,0 n (%)
same,"Hypotension, all grades",500 mg QD,4 (36.4) n (%)
same,"Hypotension, grade ≥3",500 mg QD,3 (27.3) n (%)
same,"Nasopharyngitis, all grades",500 mg QD,0 n (%)
same,"Nasopharyngitis, grade ≥3",500 mg QD,0 n (%)
same,"Nausea, all grades",500 mg QD,8 (72.7) n (%)
same,"Nausea, grade ≥3",500 mg QD,0 n (%)
same,"Neutropenia, all grades",500 mg QD,2 (18.2) n (%)
same,"Neutropenia, grade ≥3",500 mg QD,1 (9.1) n (%)
same,"Oedema peripheral, all grades",500 mg QD,1 (9.1) n (%)
same,"Oedema peripheral, grade ≥3",500 mg QD,0 n (%)
same,"Patients with ≥1 AE, all grades",500 mg QD,10 (90.9) n (%)
same,"Patients with ≥1 AE, grade ≥3",500 mg QD,4 (36.4) n (%)
same,"Rash, all grades",500 mg QD,0 n (%)
same,"Rash, grade ≥3",500 mg QD,0 n (%)
same,"Vomiting, all grades",500 mg QD,5 (45.5) n (%)
same,"Vomiting, grade ≥3",500 mg QD,0 n (%)
same,"ALT increased, all grades",800 mg QD,0 n (%)
same,"ALT increased, grade ≥3",800 mg QD,0 n (%)
same,"AST increased, all grades",800 mg QD,0 n (%)
same,"AST increased, grade ≥3",800 mg QD,0 n (%)
same,"Abdominal pain upper, all grades",800 mg QD,0 n (%)
same,"Abdominal pain upper, grade ≥3",800 mg QD,0 n (%)
same,"Asthenia, all grades",800 mg QD,0 n (%)
same,"Asthenia, grade ≥3",800 mg QD,0 n (%)
same,"Blood creatinine increased, all grades",800 mg QD,0 n (%)
same,"Blood creatinine increased, grade ≥3",800 mg QD,0 n (%)
same,"Constipation, all grades",800 mg QD,0 n (%)
same,"Constipation, grade ≥3",800 mg QD,0 n (%)
same,"Decreased appetite, all grades",800 mg QD,0 n (%)
same,"Decreased appetite, grade ≥3",800 mg QD,0 n (%)
same,"Dermatitis acneiform, all grades",800 mg QD,0 n (%)
same,"Dermatitis acneiform, grade ≥3",800 mg QD,0 n (%)
same,"Diarrhoea, all grades",800 mg QD,1 (100) n (%)
same,"Diarrhoea, grade ≥3",800 mg QD,0 n (%)
same,"Dry skin, all grades",800 mg QD,0 n (%)
same,"Dry skin, grade ≥3",800 mg QD,0 n (%)
same,"Fatigue, all grades",800 mg QD,0 n (%)
same,"Fatigue, grade ≥3",800 mg QD,0 n (%)
same,"Hypotension, all grades",800 mg QD,1 (100) n (%)
same,"Hypotension, grade ≥3",800 mg QD,1 (100) n (%)
same,"Nasopharyngitis, all grades",800 mg QD,0 n (%)
same,"Nasopharyngitis, grade ≥3",800 mg QD,0 n (%)
same,"Nausea, all grades",800 mg QD,1 (100) n (%)
same,"Nausea, grade ≥3",800 mg QD,0 n (%)
same,"Neutropenia, all grades",800 mg QD,0 n (%)
same,"Neutropenia, grade ≥3",800 mg QD,0 n (%)
same,"Oedema peripheral, all grades",800 mg QD,0 n (%)
same,"Oedema peripheral, grade ≥3",800 mg QD,0 n (%)
same,"Patients with ≥1 AE, all grades",800 mg QD,1 (100) n (%)
same,"Patients with ≥1 AE, grade ≥3",800 mg QD,1 (100) n (%)
same,"Rash, all grades",800 mg QD,0 n (%)
same,"Rash, grade ≥3",800 mg QD,0 n (%)
same,"Vomiting, all grades",800 mg QD,0 n (%)
same,"Vomiting, grade ≥3",800 mg QD,0 n (%)
same,"ALT increased, all grades",1000 mg QD,1 (25.0) n (%)
same,"ALT increased, grade ≥3",1000 mg QD,0 n (%)
same,"AST increased, all grades",1000 mg QD,0 n (%)
same,"AST increased, grade ≥3",1000 mg QD,0 n (%)
same,"Abdominal pain upper, all grades",1000 mg QD,0 n (%)
same,"Abdominal pain upper, grade ≥3",1000 mg QD,0 n (%)
same,"Asthenia, all grades",1000 mg QD,0 n (%)
same,"Asthenia, grade ≥3",1000 mg QD,0 n (%)
same,"Blood creatinine increased, all grades",1000 mg QD,0 n (%)
same,"Blood creatinine increased, grade ≥3",1000 mg QD,0 n (%)
same,"Constipation, all grades",1000 mg QD,0 n (%)
same,"Constipation, grade ≥3",1000 mg QD,0 n (%)
same,"Decreased appetite, all grades",1000 mg QD,0 n (%)
same,"Decreased appetite, grade ≥3",1000 mg QD,0 n (%)
same,"Dermatitis acneiform, all grades",1000 mg QD,0 n (%)
same,"Dermatitis acneiform, grade ≥3",1000 mg QD,0 n (%)
same,"Diarrhoea, all grades",1000 mg QD,4 (100) n (%)
same,"Diarrhoea, grade ≥3",1000 mg QD,0 n (%)
same,"Dry skin, all grades",1000 mg QD,1 (25.0) n (%)
same,"Dry skin, grade ≥3",1000 mg QD,0 n (%)
same,"Fatigue, all grades",1000 mg QD,3 (75.0) n (%)
same,"Fatigue, grade ≥3",1000 mg QD,0 n (%)
same,"Hypotension, all grades",1000 mg QD,2 (50.0) n (%)
same,"Hypotension, grade ≥3",1000 mg QD,1 (25.0) n (%)
same,"Nasopharyngitis, all grades",1000 mg QD,1 (25.0) n (%)
same,"Nasopharyngitis, grade ≥3",1000 mg QD,0 n (%)
same,"Nausea, all grades",1000 mg QD,4 (100) n (%)
same,"Nausea, grade ≥3",1000 mg QD,0 n (%)
same,"Neutropenia, all grades",1000 mg QD,0 n (%)
same,"Neutropenia, grade ≥3",1000 mg QD,0 n (%)
same,"Oedema peripheral, all grades",1000 mg QD,0 n (%)
same,"Oedema peripheral, grade ≥3",1000 mg QD,0 n (%)
same,"Patients with ≥1 AE, all grades",1000 mg QD,4 (100) n (%)
same,"Patients with ≥1 AE, grade ≥3",1000 mg QD,2 (50.0) n (%)
same,"Rash, all grades",1000 mg QD,0 n (%)
same,"Rash, grade ≥3",1000 mg QD,0 n (%)
same,"Vomiting, all grades",1000 mg QD,0 n (%)
same,"Vomiting, grade ≥3",1000 mg QD,0 n (%)
